In ChEMBL document CHEMBL4373747 (ACS Med Chem Lett, 2020):

Key:
[1] = Cytotoxicity against human MRC9 cells assessed as reduction in cell viability incubated for 72 hrs by cell-titer blue assay; format: cell-based; settings: MRC9, 72 h
MOLM-13 = assay: Cytotoxicity against human MOLM13 cells assessed as reduction in cell viability incubated for 72 hrs by cell-titer blue assay; format: functional, cell-based; settings: MOLM-13, 72 h
[2] = molecular target: T1, Protein deacetylase HDAC6 (Homo sapiens, UniProt Q9UBN7); assay: Inhibition of recombinant full length human HDAC6 expressed in baculovirus infected Sf9 cells assessed as inhibitory constant using FAM-RHKK-Ac as substrate incubated for 5 hrs by electrophoretic mobility shift assay
T1 sequence (Q9UBN7 whole entry): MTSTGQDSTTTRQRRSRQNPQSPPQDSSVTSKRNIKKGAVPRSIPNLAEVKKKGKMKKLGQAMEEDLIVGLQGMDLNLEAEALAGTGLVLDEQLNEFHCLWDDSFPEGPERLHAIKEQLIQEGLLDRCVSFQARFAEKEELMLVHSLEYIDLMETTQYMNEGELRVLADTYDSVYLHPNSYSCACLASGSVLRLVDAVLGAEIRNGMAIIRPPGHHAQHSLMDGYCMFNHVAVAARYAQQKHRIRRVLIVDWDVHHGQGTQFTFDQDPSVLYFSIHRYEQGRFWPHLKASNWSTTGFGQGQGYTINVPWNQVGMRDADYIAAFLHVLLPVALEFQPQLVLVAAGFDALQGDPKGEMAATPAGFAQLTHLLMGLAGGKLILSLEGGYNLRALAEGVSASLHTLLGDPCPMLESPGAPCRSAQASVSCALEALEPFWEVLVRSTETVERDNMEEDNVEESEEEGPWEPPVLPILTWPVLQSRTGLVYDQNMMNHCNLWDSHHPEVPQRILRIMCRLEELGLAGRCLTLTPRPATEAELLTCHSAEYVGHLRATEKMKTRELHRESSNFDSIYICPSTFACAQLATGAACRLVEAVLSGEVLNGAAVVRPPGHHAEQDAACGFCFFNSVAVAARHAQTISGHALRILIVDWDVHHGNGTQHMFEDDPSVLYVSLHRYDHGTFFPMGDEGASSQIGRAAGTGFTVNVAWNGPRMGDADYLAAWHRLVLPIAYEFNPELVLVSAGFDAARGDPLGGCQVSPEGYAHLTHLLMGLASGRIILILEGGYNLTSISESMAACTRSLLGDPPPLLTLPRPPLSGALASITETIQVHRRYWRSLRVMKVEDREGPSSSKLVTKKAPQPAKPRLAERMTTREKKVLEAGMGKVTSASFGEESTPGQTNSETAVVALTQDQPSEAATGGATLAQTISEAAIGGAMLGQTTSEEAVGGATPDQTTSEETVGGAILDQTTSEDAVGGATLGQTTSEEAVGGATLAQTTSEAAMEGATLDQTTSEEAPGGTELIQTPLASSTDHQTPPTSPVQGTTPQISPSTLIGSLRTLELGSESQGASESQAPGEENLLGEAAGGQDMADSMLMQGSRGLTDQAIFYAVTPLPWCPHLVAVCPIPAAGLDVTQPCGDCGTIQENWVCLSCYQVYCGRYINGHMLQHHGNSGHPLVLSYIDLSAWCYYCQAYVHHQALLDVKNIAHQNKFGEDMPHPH

MDA-MB-231 = assay: Cytotoxicity against human MDA-MB-231 cells assessed as reduction in cell viability incubated for 72 hrs by cell-titer blue assay; format: functional, cell-based; settings: MDA-MB-231, 72 h
Histone deacetylase 3 = Histone deacetylase 3 (Homo sapiens, UniProt O15379); assay: Inhibition of recombinant full length human HDAC3 expressed in baculovirus infected Sf9 cells using FAM-RHKK-Ac as substrate incubated for 3 hrs by electrophoretic mobility shift assay
Histone deacetylase 8 = molecular target: T2, Histone deacetylase 8 (Homo sapiens, UniProt Q9BY41); assay: Inhibition of recombinant full length human HDAC8 expressed in baculovirus infected Sf9 cells using FAM-RHKK-TFAc as substrate incubated for 3 hrs by electrophoretic mobility shift assay
T2 sequence (Q9BY41 whole entry): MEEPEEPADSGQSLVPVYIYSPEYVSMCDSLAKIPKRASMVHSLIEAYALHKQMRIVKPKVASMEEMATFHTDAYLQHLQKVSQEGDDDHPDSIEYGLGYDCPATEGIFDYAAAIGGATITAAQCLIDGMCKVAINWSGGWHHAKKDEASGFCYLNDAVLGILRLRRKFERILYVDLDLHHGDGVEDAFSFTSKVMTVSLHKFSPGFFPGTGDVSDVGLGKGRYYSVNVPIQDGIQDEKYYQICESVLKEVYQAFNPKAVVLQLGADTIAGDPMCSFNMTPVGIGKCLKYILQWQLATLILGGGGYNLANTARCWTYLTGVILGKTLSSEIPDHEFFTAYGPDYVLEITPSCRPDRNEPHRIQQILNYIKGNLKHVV

MV4-11 = assay: Cytotoxicity against human MV4-11 cells assessed as reduction in cell viability incubated for 72 hrs by cell-titer blue assay; format: functional, cell-based; settings: MV4-11, 72 h
[3] = molecular target: T1, Protein deacetylase HDAC6; assay: Inhibition of recombinant full length human HDAC6 expressed in baculovirus infected Sf9 cells using FAM-RHKK-Ac as substrate incubated for 5 hrs by electrophoretic mobility shift assay
Histone deacetylase 11 = molecular target: T3, Histone deacetylase 11 (Homo sapiens, UniProt Q96DB2); assay: Inhibition of recombinant full length human HDAC11 expressed in baculovirus infected Sf9 cells using FAM-RHKK-TFAc as substrate incubated for 17 hrs by electrophoretic mobility shift assay
T3 sequence (Q96DB2 whole entry): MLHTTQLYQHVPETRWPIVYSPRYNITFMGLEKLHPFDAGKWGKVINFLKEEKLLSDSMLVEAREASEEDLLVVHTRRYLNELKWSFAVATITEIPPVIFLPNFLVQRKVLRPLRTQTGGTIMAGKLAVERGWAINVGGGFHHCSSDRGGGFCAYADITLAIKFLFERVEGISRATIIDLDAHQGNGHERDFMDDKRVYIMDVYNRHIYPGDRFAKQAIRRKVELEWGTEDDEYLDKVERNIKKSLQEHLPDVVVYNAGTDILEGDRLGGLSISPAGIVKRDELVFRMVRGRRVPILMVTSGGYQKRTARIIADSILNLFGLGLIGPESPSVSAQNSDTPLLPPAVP

MDA-MB-468 = assay: Cytotoxicity against human MDA-MB-468 cells assessed as reduction in cell viability incubated for 72 hrs by cell-titer blue assay; format: functional, cell-based; settings: MDA-MB-468, 72 h
[4] = Efflux ratio of apparent permeability in human Caco2 cells incubated for 2 hrs by LC/MS analysis; format: ADME, cell-based, Caco-2; settings: Caco-2

Chain of Histone deacetylase 3 (O15379 whole entry): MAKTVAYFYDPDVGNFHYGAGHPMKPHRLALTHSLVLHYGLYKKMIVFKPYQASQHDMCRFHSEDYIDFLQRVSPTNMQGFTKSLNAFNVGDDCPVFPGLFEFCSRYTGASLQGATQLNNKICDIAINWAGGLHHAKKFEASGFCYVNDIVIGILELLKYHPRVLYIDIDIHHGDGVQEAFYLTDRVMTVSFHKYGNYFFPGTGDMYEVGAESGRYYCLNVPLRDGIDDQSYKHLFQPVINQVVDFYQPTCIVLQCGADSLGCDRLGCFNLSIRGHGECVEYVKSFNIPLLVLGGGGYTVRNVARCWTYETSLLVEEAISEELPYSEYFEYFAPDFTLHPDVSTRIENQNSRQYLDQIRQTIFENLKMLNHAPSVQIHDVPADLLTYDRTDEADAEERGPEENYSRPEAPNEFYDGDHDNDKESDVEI

SMILES	IC50 [1] [nM]	IC50 (MOLM-13) [nM]	Ki [2] [nM]	IC50 (MDA-MB-231) [nM]	IC50 (Histone deacetylase 3) [nM]	IC50 (Histone deacetylase 8) [nM]	IC50 (MV4-11) [nM]	IC50 [3] [nM]	IC50 (Histone deacetylase 11) [nM]	IC50 (MDA-MB-468) [nM]	efflux ratio at 2 h [4]
CC(C)(C)c1ccc(CNc2ccc(C(=O)NO)cc2)cc1	16100	9470	451	> 25000	503	> 1000	3490	110	> 1000	> 25000	–
C[C@H]1O[C@@H](O[C@H]2[C@@H](O)C[C@H](O[C@H]3[C@@H](O)C[C@H](O[C@H]4CC[C@@]5(C)[C@H](CC[C@@H]6[C@@H]5C[C@@H](O)[C@]5(C)[C@@H](C7=CC(=O)OC7)CC[C@]65O)C4)O[C@@H]3C)O[C@@H]2C)C[C@H](O)[C@@H]1O [DIGOXIN]	–	–	–	–	–	–	–	–	–	–	73
CN(C(=O)CN(C)S(=O)(=O)c1ccc(F)cc1)c1ccc(C(=O)NO)cc1	–	24800	793	–	708	573	14600	117	> 1000	–	–
COCCc1ccc(OCC(O)CNC(C)C)cc1 (centres undefined) [METOPROLOL]	–	–	–	–	–	–	–	–	–	–	1
CN(C(=O)CN(Cc1c(F)c(F)c(F)c(F)c1F)S(=O)(=O)c1ccc(F)cc1)c1ccc(C(=O)NO)cc1	> 25000	14100	573	> 25000	213	224	3240	20.1	> 1000	> 25000	–
CC(C)(C)OC(=O)N(Cc1ccc(C(C)(C)C)cc1)c1ccc(C(=O)NO)cc1	9490	10300	201	> 25000	374	635	3120	28.2	837	> 25000	–
